The source of these data is patent US8956842B2, “Paenibacillus sp. HPL-3 strain producing xylanase having heat-resistance, a wide range of optimum pH and high activity, a novel xylanase separated from the strain, and a method for mass-production of the same using the transformant originated from the strain” (Korea Research Institute of Chemical Technology, priority 2011, dated 2015).

One series deals with novel xylanase. Nature of the series: Effect of metal ions and additives on xylanase activity (DNS method). It is filed as biochemical, Paenibacillus sp. HPL-3. As to the method:
(§1) The measurement of xylanase activity (xylan decomposing activity) of the isolated strain, active clone, transformant, and isolated/purified enzyme was performed by either or both of the following two methods. The first method was enzyme activity measuring method using solid culture. Particularly, soft agar double medium was prepared by adding birch xylan (Fluka Bio Chemika. Co.) to LB medium by 0.5˜1.0%, to which the strain was inoculated, followed by culture for overnight. On the next day, the strain and active clone forming translucent zone (halo) around the cultured colony were selected by Congo-red staining. The second method was enzyme activity measuring method using liquid culture, that is DNS (3,5-dinitrosalicylic acid) quantitative method (Miller G. L. Anal Chem 31, 426-428, 1959). Particularly, 50 μl of substrate solution (50 mM Tris-HCl containing birch xylan by 2%, pH 7.0) was added to 50 μl of enzyme solution, followed by reaction at 50° C. for 20 minutes. 200 μl of DNS solution was added thereto, followed by further reaction at 90° C. for 5 minutes. Then, OD540 was measured. 1 unit of the enzyme was defined as the enzyme activity of 1 mg xylanase to produce 1 μmol of reducing sugar (xylose) per 1 minute.
To investigate the effect of metal ions on xylanase activity, CaCl2, MgCl2, MgCl2, CuCl2, ZnCl2, and FeCl3 were added by 1 mM each. It was further investigated how other salts such as NaCl, LiCl, KCl, NH4Cl, EDTA, CsCl2, 2-ME (2-Mercaptoethanol), DTT (Dithiothreitol), PMSF (Penylmethylsulfonyl fluoride), acetate, and furfural could affect xylanase activity.

Series [1] is described as follows: Xylanase activity (xylan decomposing activity) by DNS quantitative method at different pH and temperature. Type of series: biochemical. As to the method:
as §1, with “minute. One clone showing the best activity, GM3-SLX1, was selected by liquid culture and solid culture activity test (FIG. 2).” for “minute.”
In this example, pH, temperature, and metal ion-dependent activity of xylanase over-expressed and isolated from the E. coli transformant over-expressing the novel xylanase constructed in Example <3-4> was investigated by the same manner as described in example 3-2. pH of the reaction solution was regulated to pH 4˜5 with citric acid buffer, to pH 6˜8 with phosphate buffer, to pH 7˜9 with Tris/HCl buffer, and to pH 9˜11 with glycine/NaOH buffer. To investigate the effect of metal ions on xylanase activity, CaCl2, MgCl2, MgCl2, CuCl2, ZnCl2, and FeCl3 were added by 1 mM each. It was further investigated how other salts such as NaCl, LiCl, KCl, NH4Cl, EDTA, CsCl2, 2-ME (2-Mercaptoethanol), DTT (Dithiothreitol), PMSF (Penylmethylsulfonyl fluoride), acetate, and furfural could affect xylanase activity.
E. coli BL21-Gold (DE) (Stratagene, USA) was transfected with pIVEX GST-xylanase recombinant vector (Bioprogen Co., Ltd., Korea) containing the gene (SEQ. ID. NO: 3) encoding the novel xylanase represented by SEQ. ID. NO: 4, which was inoculated in liquid medium (LB 25 g/L) supplemented with ampicillin (50 μg/ml), followed by shaking culture at 37° C. at 150 rpm until […] reached 0.4˜0.6. To induce the expression of the target protein in E. coli cells, IPTG (isopropyl-D-thiogalactoside) was added to the suspension at the concentration of 1 mM, followed by further culture for 3 hours. The culture solution was centrifuged at 10,000 rpm for 10 minutes and the recovered precipitate was washed with PBS twice. The washed precipitate was re-suspended in PBS and then cell were lysed by using a ultrasonicator (Cosmo Bio Co., LTD). Centrifugation was performed (12,000 rpm, 10 minutes) to obtain supernatant. To isolate xylanase from the supernatant, glutathione S-transferase column (GST binding resin column, Novagen) was used. For xylanase separation, the obtained supernatant was filled in glutathione S-transferase column (GST binding resin column, Novagen) equilibrated with washing buffer (50 mM Tris-HCl, 100 mM NaCl; pH 7.0), followed by treatment of factor Xa protease (NEB) and separation using washing buffer (50 mM Tris-HCl, 100 mM NaCl; pH 7.0). The enzyme activity of xylanase in each sample recovered from the purification stage was investigated. The purification of active fraction showing the enzyme activity was confirmed by SDS-PAGE. Protein content was measured by using Bradford method (Bradford, Sigma Aldrich), and BSA (bovine serum albumin) was used as the standard protein.

The nature of series [2]: Enzymatic reaction rate (Lineweaver-Burk) of the purified xylanase. It is filed as biochemical.
[3] abbreviates: 1 mM additive, negative control = 100.
The mark [4] stands for this setting: 1 mM of heavy metal or additive.

Like-named read-outs stand apart in the source and are kept apart here.

For `O[C@H](CS)[C@H](O)CS` (racemic) [DTT, Dithiothreitol], the “Relative activity according to conc. of additive (%)” value (“Relative activity according … (%)” for short) in the series with novel xylanase (setting [3]) is on record as 95%.

With `OCCS` [2-ME, 2-Mercaptoethanol], in the series on novel xylanase (setting [3]), the “Relative activity according … (%)” value worked out at 89%.

For the molecule `CC(=O)O` [Acetate], the “Relative activity according … (%)” value in the series on novel xylanase (setting [3]) was found to be 101%.

As to `[Ca+2].[Cl-].[Cl-]` [CaCl2], the “Relative activity according … (%)” value in the series on novel xylanase (setting [3]) is given as 102%.

With `[Cl-].[Cs+]` [CsCl2], in the series on novel xylanase (setting [3]), the “Relative activity according … (%)” value came out at 97%.

Regarding `O=S(=O)([O-])[O-].[Cu+2]` [CuSO4], the “Relative activity according … (%)” value in the series on novel xylanase (setting [3]) was 26%. Also, in the series with novel xylanase (setting [4]), the “xylanase activity inhibited by” value is listed as 74%. The “enzyme activity in presence of additive” value in the series with novel xylanase (concentration of 100 HM) is “hardly affected”.

In the case of `O=C(O)CN(CCN(CC(=O)O)CC(=O)O)CC(=O)O` [EDTA], in the series on novel xylanase, the “Relative activity according … (%)” value worked out at 54%, the “enzyme activity in presence of additive” value is “hardly affected” and the “xylanase activity inhibited by” value turned out to be 46%.

Take `[Cl][Fe]([Cl])[Cl]` [FeCl3]: in the series on novel xylanase (setting [3]), the “Relative activity according … (%)” value came out at 88%. Moreover, in the series on novel xylanase (setting [4]), the “xylanase activity inhibited by” value worked out at 12%. For the same molecule, the “enzyme activity in presence of additive” value with novel xylanase (concentration of 100 HM) is listed as “hardly affected”.

Turning to `O=Cc1ccco1` [Furfural, furfural], the “Relative activity according … (%)” value with novel xylanase (setting [3]) stood at 98%.

Turning to `[Cl-].[K+]` [KCl], in the series on novel xylanase (setting [3]), the “Relative activity according … (%)” value was 101%.

Consider `[Cl-].[Li+]` [LiCl], for which the “Relative activity according … (%)” value with novel xylanase (setting [3]) is reported as 101%.

Regarding `[Cl-].[Cl-].[Mg+2]` [MgCl2], in the series on novel xylanase (setting [3]), the “Relative activity according … (%)” value is 93%.

Turning to `[Cl][Mn][Cl]` [MnCl2], in the series on novel xylanase (setting [3]), the “Relative activity according … (%)” value is listed as 98%.

Take `Cl.N` [NH4Cl]: the “Relative activity according … (%)” value in the series on novel xylanase (setting [3]) was 99%.

In the case of `[Cl-].[Na+]` [NaCl], the “Relative activity according … (%)” value in the series with novel xylanase turned out to be 105%.

Consider `O=S(=O)(F)Cc1ccccc1` [PMSF, Penylmethylsulfonyl fluoride], for which, in the series on novel xylanase (setting [3]), the “Relative activity according … (%)” value worked out at 95%.

Turning to `O=S(=O)([O-])[O-].[Zn+2]` [ZnSO4], in the series on novel xylanase (setting [3]), the “Relative activity according … (%)” value turned out to be 72%. Also, the “xylanase activity inhibited by” value in the series on novel xylanase (setting [4]) is reported as 28%. Also, in the series with novel xylanase (concentration of 100 HM), the “enzyme activity in presence of additive” value is reported as “hardly affected”.

B1: novel xylanase: approximately 65 kD xylanase of Paenibacillus sp. HPL-3, amino acid sequence SEQ. ID. NO: 4, produced in E. coli transformant (protein)
chain: MDTLKLYVESSNPAQAYYLDEVEIRQVSETPTTPPTEPTSGIESRFEDGTAQGWVSRMGTETVQVSNADARTGSYSLLTTGRQQTYAGPKLDVTATVQKGSRYTVSAWVKLAPGEQQPAKVRLSVQRDHQGESTYETVVGNTAITTGGWTHLYGTYTLAHEADTVSMYLETPEGTASFYMDDFELSLVPPLAIEKDIPSLHGLYQGQFSIGTAIEAFQTEGAYGELVQKHFNSVVAGNAMKPISLQPSEGQFHWEEADRIVQFAQQHGIAIRFHTLVWHNQTGDWMFKDKNGQPMTPTAENKKLLLDRLETHIRAVAARYKNVITDWDVVNEVIDPDQPDGMRRSKWYQITGTDYIDKAFRVTREAAGPNARLYINDYNTHEPKKRDFLYNLVRDLLAKGVPIDGVGHQSHIRLEFPAIDEMEQSIEKFASLGLDNQITELDMGLYSNDTDHYETIPEAMLIRQAHRYRALFDMFSRQQEHISNVTIWGTDDGNTWLSMFPIARLDKPLLFDERLKAKYAYWALVDPSKVPPLPAGSNE
modifications: SLX-O9 protein sequence
notes: approximately 65 kD xylanase of Paenibacillus sp; ID; NO: 4, produced in E. coli transformant
Take B1: the enzyme activity in series [1] (50° C., pH 5.0) stood at 97.37 units; in series [1] (50° C., pH 6.0) it was 124.19 units; in series [1] (50° C., pH 7.0), 122.21 units; in series [1] (50° C., pH 8.0), 124.61 units; in series [1] (50° C., pH 9.0) it was 122.95 units; in series [1] (50° C., pH 10.0), 103.27 units. Also, the enzyme activity in series [1] (50° C., pH 11.0) was determined as 96.08 units; in series [1] (60° C., pH 5.0, units = μM of xylose produced by 1 mg of enzyme per 1 minute), 26.93 units; in series [1] (60° C., pH 6.0), 105.19 units; in series [1] (60° C., pH 7.0) it was 123.56 units; in series [1] (60° C., pH 8.0), 120.95 units; in series [1] (60° C., pH 9.0), 112.25 units. Also, the enzyme activity in series [1] (60° C., pH 10.0) came out at 29.89 units; in series [1] (60° C., pH 11.0), 22.76 units. For the same molecule, the “activity of purified enzyme compared with before purification” value in series [1] (after glutathione resin column purification) is reported as “at least 5 times”. For the same molecule, the “xylanase activity when conjugated onto the resin” value in series [1] (glutathione resin) is given as “not changed”. The “xylanase activity against other xylans (beech, oats, etc) compared with birch xylan” value in series [2] is on record as “similar”.
